Test results: patent publication US6060038A, “Radiolabeled farnesyl-protein transferase inhibitors” (Merck & Co., Inc., priority 1998, dated 2000)
Structures can show the parent of a compound that is named as a salt.

Columns and labels:
FPTase = assay: PET Imaging in Dogs: block of [^11 C]-Compound 1 radiotracer binding by infused FTI; assay type: in vivo, beagle dogs; conditions: 10 mpk infused over 5 minutes, radiotracer [^11 C]-Compound 1
Protocol: Kinetics of enzyme occupancy by an unlabeled FPTase inhibitor (test compound) is determined by this assay. Thus, FVB mice are injected the test compound at either 40 mpk or 10 mpk subcutaneously (0.1 mls). Thirty minutes prior to euthanasia, 3 nCi of tritiated farnesyl protein transferase inhibitor (radiotracer) was injected i.p. (0.2 mls 10% EtOH in 0.9% saline). Uninhibited binding of the radiotracer is determined by injection of the radiotracer in mice which have not received injection of the test compound. The mice are euthanized either 2 hours of 14 hours after injection of the test compound and lung, spleen, pancrease and blood are removed and processed as described above. Data are plotted as %-dose/g of tissue (wet weight). […]
Oxygen saturation of circulating blood is measured with a pulse oximeter (Nellcor Inc., Hayward, Calif.) placed on the tongue of the animal. […] EKG, heart rate, and core temperature are monitored continuously. […]
For uninhibited distribution of radiotracer, regions of interest (ROIs) are drawn on the reconstructed image includes the kidney cortex and a region of liver which is removed from the gallbladder images. […] Data are expressed as radioactivity per unit time per unit volume (μCi/cc/mCi injected dose). […]

[1] = Radiochemical decomposition of stored radiotracer samples; assay type: physicochemical; conditions: stored for up to 90 minutes in sterile glass vial; saline/sodium bicarbonate
Protocol: The container used for the drug is described above. It consists of a sterile, pyrogen free glass vial with a crimp-sealed aluminum cap surrounding a rubber stopper. Samples of the radiotracer have been stored for up to 90 minutes and analyzed for radiochemical decomposition.

radiochemical decomposition on storage [1]	SMILES	block of radiotracer binding (FPTase)
	CCCC[C@H]1CN(c2cccc(C)c2C)C(=O)CN1Cc1cncn1Cc1ccc(C#N)cc1.O=C(O)C(F)(F)F.O=C(O)C(F)(F)F [Compound 3, 5(S)-n-Butyl-4-[1-(4-cyanobenzyl)imidazol-5-ylmethyl]-1-(2,3-dimethylphenyl)piperazin-2-one ditrifluoroacetic acid salt]	completely block radiotracer binding
No decomposition has been observed	[11CH3]S(=O)(=O)CC[C@H]1CN(c2cc(I)cc(CF)c2)C(=O)CN1Cc1cncn1Cc1ccc(C#N)cc1 [[^11 C]-Compound 1, (S)-1-(3-iodo-5-fluoromethylphenyl)-4-[1-(4-cyanobenzyl)-5-imidazolylmethyl]-5-[2-(^11 C-methanesulfonyl)ethyl]-2-piperazinone dihydrochloride]	
